Reference: US9156796B2, “Benzoimidazole-carboxylic acid amide derivatives as APJ receptor modulators” (SANOFI, priority 2013, dated 2015)

These compounds were tested against T1, human apelin receptor (Homo sapiens, UniProt P35414) (assay: Determination of agonism on the human apelin receptor by a calcium fluorescence assay (FLIPR)). Details: HEK293 cells stably transfected with human apelin receptor and Giaq protein, Fluo-4 calcium fluorescence, read-out: EC50 (APJ agonism).
T1 construct: expressed in transfected cells
T1 sequence (P35414 1-380): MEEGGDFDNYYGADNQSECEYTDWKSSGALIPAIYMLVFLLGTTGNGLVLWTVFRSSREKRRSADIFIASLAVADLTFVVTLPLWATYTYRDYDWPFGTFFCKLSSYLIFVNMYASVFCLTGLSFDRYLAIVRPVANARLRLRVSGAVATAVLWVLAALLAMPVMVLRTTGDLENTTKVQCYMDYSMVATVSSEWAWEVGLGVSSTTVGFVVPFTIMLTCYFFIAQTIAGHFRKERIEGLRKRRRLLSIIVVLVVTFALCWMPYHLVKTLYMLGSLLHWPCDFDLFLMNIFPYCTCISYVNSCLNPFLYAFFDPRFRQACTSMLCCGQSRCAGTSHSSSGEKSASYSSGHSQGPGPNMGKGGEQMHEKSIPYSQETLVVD
Assay type: cell-based
In short: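 Agonist EC50s come from peak intracellular calcium transients recorded by FLIPR Tetra, scaled to the 1 μM apelin-13 maximum per plate. Test system: HEK293 stably transfected with human apelin receptor plus Giaq, Fluo-4-loaded (4 μM, 1 h, 37 °C, pH 7.4 buffer with probenecid); ≥7 concentrations, triplicates.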

| Compound | EC50 |
| --- | --- |
| CCC(CC)n1c(Cc2cccs2)nc2cc(C(=O)N[C@@H](CC(C)C)C(=O)NCC3CCN(CCc4ccccc4)C3)ccc21 (stereo partly drawn) [Example 291, 1-(1-Ethyl-propyl)-2-thiophen-2-ylmethyl-1H-benzoimidazole-5-carboxylic acid {(S)-3-methyl-1-[(1-phenethyl-pyrrolidin-3-ylmethyl)-carbamoyl]-butyl}-amide] | 0.408 µM |
| CCC(CC)n1c(Cc2cccs2)nc2cc(C(=O)N[C@@H](CC(C)C)C(=O)NC3CC4CCCC(C3)N4C)ccc21 (stereo partly drawn) [Example 292, 1-(1-Ethyl-propyl)-2-thiophen-2-ylmethyl-1H-benzoimidazole-5-carboxylic acid [(S)-3-methyl-1-(9-methyl-9-aza-bicyclo[3.3.1]non-3-ylcarbamoyl)-butyl]-amide] | 1.22 µM |
| CCC(CC)n1c(Cc2cccs2)nc2cc(C(=O)N[C@@H](CC(C)C)C(=O)NCCCN3CC(C)OC(C)C3)ccc21 (stereo partly drawn) [Example 294, 1-(1-Ethyl-propyl)-2-thiophen-2-ylmethyl-1H-benzoimidazole-5-carboxylic acid {(S)-1-[3-(2,6-dimethyl-morpholin-4-yl)-propylcarbamoyl]-3-methyl-butyl}-amide] | 0.722 µM |
| CCC(CC)n1c(Cc2cccs2)nc2cc(C(=O)N[C@@H](CC(C)C)C(=O)NCC3CCCN(C)C3)ccc21 (stereo partly drawn) [Example 297, 1-(1-Ethyl-propyl)-2-thiophen-2-ylmethyl-1H-benzoimidazole-5-carboxylic acid {(S)-3-methyl-1-[(1-methyl-piperidin-3-ylmethyl)-carbamoyl]-butyl}-amide] | 0.39 µM |
| CCC(CC)n1c(Cc2cccs2)nc2cc(C(=O)N[C@@H](CC(C)C)C(=O)NC3CCN(Cc4ccncc4)CC3)ccc21 [Example 298, 1-(1-Ethyl-propyl)-2-thiophen-2-ylmethyl-1H-benzoimidazole-5-carboxylic acid [(S)-3-methyl-1-(1-pyridin-4-ylmethyl-piperidin-4-ylcarbamoyl)-butyl]-amide] | 1.26 µM |
| CCC(CC)n1c(Cc2cccs2)nc2cc(C(=O)N[C@@H](CC(C)C)C(=O)NCC3CCCN(CCc4ccccc4)C3)ccc21 (stereo partly drawn) [Example 302, 1-(1-Ethyl-propyl)-2-thiophen-2-ylmethyl-1H-benzoimidazole-5-carboxylic acid {(S)-3-methyl-1-[(1-phenethyl-piperidin-3-ylmethyl)-carbamoyl]-butyl}-amide] | 0.386 µM |
| CCC(CC)n1c(Cc2cccs2)nc2cc(C(=O)N[C@@H](CC(C)C)C(=O)NCC3CCCN(CC)C3)ccc21 (stereo partly drawn) [Example 303, 1-(1-Ethyl-propyl)-2-thiophen-2-ylmethyl-1H-benzoimidazole-5-carboxylic acid {(S)-1-[(1-ethyl-piperidin-3-ylmethyl)-carbamoyl]-3-methyl-butyl}-amide] | 0.214 µM |
| CCC(CC)n1c(Cc2cccs2)nc2cc(C(=O)N[C@@H](CC(C)C)C(=O)NCC3CCN(CC(C)C)C3)ccc21 (stereo partly drawn) [Example 304, 1-(1-Ethyl-propyl)-2-thiophen-2-ylmethyl-1H-benzoimidazole-5-carboxylic acid {(S)-1-[(1-isobutyl-pyrrolidin-3-ylmethyl)-carbamoyl]-3-methyl-butyl}-amide] | 0.461 µM |
| CCC(CC)n1c(Cc2cccs2)nc2cc(C(=O)N[C@@H](CC(C)C)C(=O)NCC3CCN(CCOC)C3)ccc21 (stereo partly drawn) [Example 305, 1-(1-Ethyl-propyl)-2-thiophen-2-ylmethyl-1H-benzoimidazole-5-carboxylic acid ((S)-1-{[1-(2-methoxy-ethyl)-pyrrolidin-3-ylmethyl]-carbamoyl}-3-methyl-butyl)-amide] | 0.319 µM |
| CCC(CC)n1c(Cc2cccs2)nc2cc(C(=O)N[C@@H](CC(C)C)C(=O)NC(C)CCN3CCOCC3)ccc21 (stereo partly drawn) [Example 306, 1-(1-Ethyl-propyl)-2-thiophen-2-ylmethyl-1H-benzoimidazole-5-carboxylic acid [(S)-3-methyl-1-(1-methyl-3-morpholin-4-yl-propylcarbamoyl)-butyl]-amide] | 1.26 µM |
| CCC(CC)n1c(Cc2cccs2)nc2cc(C(=O)N[C@@H](CC(C)C)C(=O)NCCC3CCCCN3Cc3ccccc3)ccc21 (stereo partly drawn) [Example 307, 1-(1-Ethyl-propyl)-2-thiophen-2-ylmethyl-1H-benzoimidazole-5-carboxylic acid {(S)-1-[2-(1-benzyl-piperidin-2-yl)-ethylcarbamoyl]-3-methyl-butyl}-amide] | 1.83 µM |
| CCC(CC)n1c(Cc2cccs2)nc2cc(C(=O)N[C@@H](CC(C)C)C(=O)NC3CCN(Cc4cccnc4)CC3)ccc21 [Example 308, 1-(1-Ethyl-propyl)-2-thiophen-2-ylmethyl-1H-benzoimidazole-5-carboxylic acid [(S)-3-methyl-1-(1-pyridin-3-ylmethyl-piperidin-4-ylcarbamoyl)-butyl]-amide] | 0.672 µM |
| CCCN1CCCC(CNC(=O)[C@H](CC(C)C)NC(=O)c2ccc3c(c2)nc(Cc2cccs2)n3C(CC)CC)C1 (stereo partly drawn) [Example 309, 1-(1-Ethyl-propyl)-2-thiophen-2-ylmethyl-1H-benzoimidazole-5-carboxylic acid {(S)-3-methyl-1-[(1-propyl-piperidin-3-ylmethyl)-carbamoyl]-butyl}-amide] | 0.482 µM |
| CCC(CC)n1c(Cc2cccs2)nc2cc(C(=O)N[C@@H](CC(C)C)C(=O)NC(C)CCCN(CC)CC)ccc21 (stereo partly drawn) [Example 314, 1-(1-Ethyl-propyl)-2-thiophen-2-ylmethyl-1H-benzoimidazole-5-carboxylic acid [(S)-1-(4-diethylamino-1-methyl-butylcarbamoyl)-3-methyl-butyl]-amide] | 0.474 µM |

The remaining lines, values ahead:

| EC50 | Compound |
| --- | --- |
| 2.64 µM | CCC(CC)n1c(Cc2cccs2)nc2cc(C(=O)N[C@@H](CC(C)C)C(=O)NC3CCN(c4ccccn4)CC3)ccc21 [Example 293, 1-(1-Ethyl-propyl)-2-thiophen-2-ylmethyl-1H-benzoimidazole-5-carboxylic acid [(S)-3-methyl-1-(3,4,5,6-tetrahydro-2H-[1,2′]bipyridinyl-4-ylcarbamoyl)-butyl]-amide] |
| 1.83 µM | CCC(CC)n1c(Cc2cccs2)nc2cc(C(=O)N[C@@H](CC(C)C)C(=O)NC3CCN(Cc4ccccn4)CC3)ccc21 [Example 295, 1-(1-Ethyl-propyl)-2-thiophen-2-ylmethyl-1H-benzoimidazole-5-carboxylic acid [(S)-3-methyl-1-(1-pyridin-2-ylmethyl-piperidin-4-ylcarbamoyl)-butyl]-amide] |
| 1.03 µM | CCC(CC)n1c(Cc2cccs2)nc2cc(C(=O)N[C@@H](CC(C)C)C(=O)N3CCC(N4CCc5ccccc5C4)CC3)ccc21 [Example 296, 1-(1-Ethyl-propyl)-2-thiophen-2-ylmethyl-1H-benzoimidazole-5-carboxylic acid {(S)-1-[4-(3,4-dihydro-1H-isoquinolin-2-yl)-piperidine-1-carbonyl]-3-methyl-butyl}-amide] |
| 0.776 µM | CCC(CC)n1c(Cc2cccs2)nc2cc(C(=O)N[C@@H](CC(C)C)C(=O)N3CCC(N4CCCCC4)C3)ccc21 (stereo partly drawn) [Example 299, 1-(1-Ethyl-propyl)-2-thiophen-2-ylmethyl-1H-benzoimidazole-5-carboxylic acid [(S)-3-methyl-1-(3-piperidin-1-yl-pyrrolidine-1-carbonyl)-butyl]-amide] |
| 0.732 µM | CCC(CC)n1c(Cc2cccs2)nc2cc(C(=O)N[C@@H](CC(C)C)C(=O)N3CCC(N4CCC(C)CC4)C3)ccc21 (stereo partly drawn) [Example 300, 1-(1-Ethyl-propyl)-2-thiophen-2-ylmethyl-1H-benzoimidazole-5-carboxylic acid {(S)-3-methyl-1-[3-(4-methyl-piperidin-1-yl)-pyrrolidine-1-carbonyl]-butyl}-amide] |
| 2.46 µM | CCC(CC)n1c(Cc2cccs2)nc2cc(C(=O)N[C@@H](CC(C)C)C(=O)NC3CCN(Cc4cccc(F)c4)CC3)ccc21 [Example 301, 1-(1-Ethyl-propyl)-2-thiophen-2-ylmethyl-1H-benzoimidazole-5-carboxylic acid {(S)-1-[1-(3-fluoro-benzyl)-piperidin-4-ylcarbamoyl]-3-methyl-butyl}-amide] |
| 0.162 µM | CCC(CC)n1c(Cc2cccs2)nc2cc(C(=O)N[C@@H](CC(C)C)C(=O)N3CCC(N(C)CCN(C)C)CC3)ccc21 [Example 310, 1-(1-Ethyl-propyl)-2-thiophen-2-ylmethyl-1H-benzoimidazole-5-carboxylic acid ((S)-1-{4-[(2-dimethylamino-ethyl)-methyl-amino]-piperidine-1-carbonyl}-3-methyl-butyl)-amide] |
| 21.2 µM | CCC(CC)n1c(Cc2cccs2)nc2cc(C(=O)N[C@@H](CC(C)C)C(=O)N3CCN(Cc4ccc5c(c4)OCO5)CC3)ccc21 [Example 311, 1-(1-Ethyl-propyl)-2-thiophen-2-ylmethyl-1H-benzoimidazole-5-carboxylic acid [(S)-1-(4-benzo[1,3]dioxol-5-ylmethyl-piperazine-1-carbonyl)-3-methyl-butyl]-amide] |
| 2.96 µM | CCC(CC)n1c(Cc2cccs2)nc2cc(C(=O)N[C@@H](CC(C)C)C(=O)N3CCN(c4ccccn4)CC3)ccc21 [Example 312, 1-(1-Ethyl-propyl)-2-thiophen-2-ylmethyl-1H-benzoimidazole-5-carboxylic acid [(S)-3-methyl-1-(4-pyridin-2-yl-piperazine-1-carbonyl)-butyl]-amide] |
| 1.89 µM | CCC(CC)n1c(Cc2cccs2)nc2cc(C(=O)N[C@@H](CC(C)C)C(=O)NC3CCN(Cc4ccccc4)CC3)ccc21 [Example 313, 1-(1-Ethyl-propyl)-2-thiophen-2-ylmethyl-1H-benzoimidazole-5-carboxylic acid [(S)-1-(1-benzyl-piperidin-4-ylcarbamoyl)-3-methyl-butyl]-amide] |
